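Compound exposure: 48 hours, 5 concentrations, 96-well plates. TGI denotes the concentration required for complete inhibition of growth.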
What was measured:
Assay in all cases: growth of human tumour cells (NCI), 48 h
786-0 renal = tested on: 786-0 renal
A498 renal = tested on: A498 renal
A549 NSCLC = tested on: A549 NSCLC
ACHN renal = tested on: ACHN renal
CAKI-1 renal = tested on: CAKI-1 renal
CCRF-CEM leukemia = tested on: CCRF-CEM leukemia
COLO 205 colon = tested on: COLO 205 colon
DMS 114 small cell lung = tested on: DMS 114 small cell lung
DMS 273 small cell lung = tested on: DMS 273 small cell lung
EKVX NSCLC = tested on: EKVX NSCLC
HCC-2998 colon = tested on: HCC-2998 colon
HCT-116 colon = tested on: HCT-116 colon
HCT-15 colon = tested on: HCT-15 colon
HL-60(TB) leukemia = tested on: HL-60(TB) leukemia
HOP-18 NSCLC = tested on: HOP-18 NSCLC
HOP-62 NSCLC = tested on: HOP-62 NSCLC
HOP-92 NSCLC = tested on: HOP-92 NSCLC
HT29 colon = tested on: HT29 colon
IGROV1 ovarian = tested on: IGROV1 ovarian
K-562 leukemia = tested on: K-562 leukemia
KM12 colon = tested on: KM12 colon
KM20L2 colon = tested on: KM20L2 colon
LOX IMVI melanoma = tested on: LOX IMVI melanoma
LXFL 529 NSCLC = tested on: LXFL 529 NSCLC
M14 melanoma = tested on: M14 melanoma
M19-MEL melanoma = tested on: M19-MEL melanoma
MALME-3M melanoma = tested on: MALME-3M melanoma
MOLT-4 leukemia = tested on: MOLT-4 leukemia
NCI-H226 lung = tested on: NCI-H226 lung
NCI-H23 lung = tested on: NCI-H23 lung
NCI-H460 lung = tested on: NCI-H460 lung
NCI-H522 lung = tested on: NCI-H522 lung
OVCAR-3 ovarian = tested on: OVCAR-3 ovarian
OVCAR-4 ovarian = tested on: OVCAR-4 ovarian
OVCAR-5 ovarian = tested on: OVCAR-5 ovarian
OVCAR-8 ovarian = tested on: OVCAR-8 ovarian
RPMI-8226 leukemia = tested on: RPMI-8226 leukemia
RXF 393 renal = tested on: RXF 393 renal
RXF-631 renal = tested on: RXF-631 renal
SF-268 CNS = tested on: SF-268 CNS
SF-295 CNS = tested on: SF-295 CNS
SF-539 CNS = tested on: SF-539 CNS
SK-MEL-2 melanoma = tested on: SK-MEL-2 melanoma
SK-MEL-28 melanoma = tested on: SK-MEL-28 melanoma
SK-MEL-5 melanoma = tested on: SK-MEL-5 melanoma
SK-OV-3 ovarian = tested on: SK-OV-3 ovarian
SN12C renal = tested on: SN12C renal
SNB-19 CNS = tested on: SNB-19 CNS
SNB-75 CNS = tested on: SNB-75 CNS
SNB-78 CNS = tested on: SNB-78 CNS
SW-620 colon = tested on: SW-620 colon
TK-10 renal = tested on: TK-10 renal
U251 CNS = tested on: U251 CNS
UACC-257 melanoma = tested on: UACC-257 melanoma
UACC-62 melanoma = tested on: UACC-62 melanoma
UO-31 renal = tested on: UO-31 renal
DLD-1 colon = tested on: DLD-1 colon
XF 498 CNS = tested on: XF 498 CNS

Q: Which results are given for `Cc1ccc(Sc2ccccc2N)cc1`?
A: TGI (786-0 renal): > 100 µM; TGI (A498 renal): > 100 µM; TGI (A549 NSCLC): > 100 µM; TGI (ACHN renal): > 100 µM; TGI (CAKI-1 renal): 67 µM; TGI (CCRF-CEM leukemia): 70 µM; TGI (COLO 205 colon): > 100 µM; TGI (DMS 114 small cell lung): > 100 µM; TGI (DMS 273 small cell lung): > 100 µM; TGI (EKVX NSCLC): > 100 µM; TGI (HCC-2998 colon): > 100 µM; TGI (HCT-116 colon): > 100 µM; TGI (HCT-15 colon): > 100 µM; TGI (HL-60(TB) leukemia): 49.6 µM; TGI (HOP-18 NSCLC): > 100 µM; TGI (HOP-62 NSCLC): 29.6 µM; TGI (HOP-92 NSCLC): 54.7 µM; TGI (HT29 colon): > 100 µM; TGI (IGROV1 ovarian): > 100 µM; TGI (K-562 leukemia): > 100 µM; TGI (KM12 colon): > 100 µM; TGI (KM20L2 colon): > 100 µM; TGI (LOX IMVI melanoma): > 100 µM; TGI (LXFL 529 NSCLC): 32.9 µM; TGI (M14 melanoma): > 100 µM; TGI (M19-MEL melanoma): > 100 µM; TGI (MALME-3M melanoma): > 100 µM; TGI (MOLT-4 leukemia): 58.4 µM; TGI (NCI-H226 lung): 66.4 µM; TGI (NCI-H23 lung): 93.3 µM; TGI (NCI-H460 lung): > 100 µM; TGI (NCI-H522 lung): 38.1 µM; TGI (OVCAR-3 ovarian): > 100 µM; TGI (OVCAR-4 ovarian): > 100 µM; TGI (OVCAR-5 ovarian): > 100 µM; TGI (OVCAR-8 ovarian): > 100 µM; TGI (RPMI-8226 leukemia): 53.4 µM; TGI (RXF 393 renal): 47.2 µM; TGI (RXF-631 renal): > 100 µM; TGI (SF-268 CNS): > 100 µM; TGI (SF-295 CNS): > 100 µM; TGI (SF-539 CNS): 87.9 µM; TGI (SK-MEL-2 melanoma): > 100 µM; TGI (SK-MEL-28 melanoma): > 100 µM; TGI (SK-MEL-5 melanoma): 45.5 µM; TGI (SK-OV-3 ovarian): > 100 µM; TGI (SN12C renal): > 100 µM; TGI (SNB-19 CNS): > 100 µM; TGI (SNB-75 CNS): > 100 µM; TGI (SNB-78 CNS): > 100 µM; TGI (SW-620 colon): > 100 µM; TGI (TK-10 renal): > 100 µM; TGI (U251 CNS): > 100 µM; TGI (UACC-257 melanoma): > 100 µM; TGI (UACC-62 melanoma): > 100 µM; TGI (UO-31 renal): 31.5 µM

Q: Which TGI (786-0 renal) does the source give for `O=C(O)c1c2c(cc3c(=O)cc(-c4ccccc4)oc13)CCCC2` here?
A: The TGI was > 100 µM.

Q: What about the TGI (A498 renal) of the same compound?
A: The TGI was > 100 µM.

Q: What about the TGI (A549 NSCLC) of the same compound?
A: Its TGI is > 100 µM.

Q: And the TGI (ACHN renal)?
A: Its TGI is > 100 µM.

Q: What about the TGI (CCRF-CEM leukemia) of the same compound?
A: Its TGI is > 100 µM.

Q: And the TGI (COLO 205 colon)?
A: The TGI was > 100 µM.

Q: And the TGI (DLD-1 colon)?
A: The TGI was > 100 µM.

Q: And the TGI (DMS 273 small cell lung)?
A: Its TGI is > 100 µM.

Q: What about the TGI (EKVX NSCLC) of the same compound?
A: Its TGI is > 100 µM.

Q: And the TGI (HCC-2998 colon)?
A: Its TGI is > 100 µM.

Q: What about the TGI (HCT-116 colon) of the same compound?
A: Its TGI is > 100 µM.

Q: What about the TGI (HCT-15 colon) of the same compound?
A: Its TGI is > 100 µM.

Q: And the TGI (HOP-62 NSCLC)?
A: The TGI was > 100 µM.

Q: What about the TGI (HOP-92 NSCLC) of the same compound?
A: Its TGI is > 100 µM.

Q: What about the TGI (HT29 colon) of the same compound?
A: Its TGI is > 100 µM.

Q: What about the TGI (IGROV1 ovarian) of the same compound?
A: Its TGI is > 100 µM.

Q: What about the TGI (K-562 leukemia) of the same compound?
A: Its TGI is > 100 µM.

Q: What about the TGI (KM12 colon) of the same compound?
A: Its TGI is > 100 µM.

Q: What about the TGI (KM20L2 colon) of the same compound?
A: The TGI was > 100 µM.

Q: What about the TGI (LOX IMVI melanoma) of the same compound?
A: Its TGI is > 100 µM.

Q: And the TGI (LXFL 529 NSCLC)?
A: Its TGI is > 100 µM.

Q: And the TGI (M14 melanoma)?
A: The TGI was > 100 µM.

Q: What about the TGI (MALME-3M melanoma) of the same compound?
A: Its TGI is > 100 µM.

Q: And the TGI (MOLT-4 leukemia)?
A: Its TGI is > 100 µM.

Q: What about the TGI (NCI-H23 lung) of the same compound?
A: The TGI was > 100 µM.

Q: What about the TGI (NCI-H460 lung) of the same compound?
A: The TGI was > 100 µM.

Q: What about the TGI (NCI-H522 lung) of the same compound?
A: Its TGI is > 100 µM.

Q: What about the TGI (OVCAR-3 ovarian) of the same compound?
A: The TGI was > 100 µM.

Q: What about the TGI (OVCAR-4 ovarian) of the same compound?
A: Its TGI is > 100 µM.

Q: And the TGI (OVCAR-5 ovarian)?
A: Its TGI is > 100 µM.

Q: And the TGI (OVCAR-8 ovarian)?
A: The TGI was > 100 µM.

Q: What about the TGI (RPMI-8226 leukemia) of the same compound?
A: The TGI was > 100 µM.

Q: What about the TGI (RXF-631 renal) of the same compound?
A: Its TGI is > 100 µM.

Q: What about the TGI (SF-268 CNS) of the same compound?
A: Its TGI is > 100 µM.

Q: What about the TGI (SF-295 CNS) of the same compound?
A: The TGI was > 100 µM.

Q: And the TGI (SF-539 CNS)?
A: The TGI was > 100 µM.

Q: And the TGI (SK-MEL-2 melanoma)?
A: The TGI was > 100 µM.

Q: What about the TGI (SK-MEL-28 melanoma) of the same compound?
A: The TGI was > 100 µM.

Q: What about the TGI (SK-MEL-5 melanoma) of the same compound?
A: The TGI was > 100 µM.

Q: What about the TGI (SK-OV-3 ovarian) of the same compound?
A: Its TGI is > 100 µM.

Q: And the TGI (SN12C renal)?
A: Its TGI is > 100 µM.

Q: What about the TGI (SNB-19 CNS) of the same compound?
A: Its TGI is > 100 µM.

Q: What about the TGI (SNB-75 CNS) of the same compound?
A: Its TGI is > 100 µM.

Q: And the TGI (SNB-78 CNS)?
A: Its TGI is > 100 µM.

Q: And the TGI (SW-620 colon)?
A: The TGI was > 100 µM.

Q: And the TGI (TK-10 renal)?
A: Its TGI is > 100 µM.

Q: And the TGI (U251 CNS)?
A: Its TGI is > 100 µM.

Q: And the TGI (UACC-257 melanoma)?
A: Its TGI is > 100 µM.

Q: What about the TGI (UACC-62 melanoma) of the same compound?
A: The TGI was > 100 µM.

Q: And the TGI (UO-31 renal)?
A: The TGI was > 100 µM.

Q: And the TGI (XF 498 CNS)?
A: Its TGI is > 100 µM.

Reference: PubChem BioAssay (NCI)
